According to US20080286254A1, “Composition comprising licorice polyphenol” (Kaneka Corporation, priority 2007, published 2008):

Test system: 3T3-L1 cells
Assay: Lipid decomposition (glycerol secretion) in in vitro obese model of differentiated 3T3-L1 adipocytes
Assay type: cell-based
Settings: 24 hr
Procedure: As adipocyte precursor cells, 3T3-L1 cells (Dainippon Sumitomo Pharmaceuticals Co., Ltd.) were used. The 3T3-L1 cells were cultured in passage medium A (10% bovine serum-added DMEM supplemented with penicillin[…]streptomycin) in a 75 cm^2 flask. The 3T3-L1 cells were plated in a 24 well plate at 20000 cells/well. The next day, the medium was changed to passage medium B (10% fetal calf serum-added high glucose DMEM supplemented with penicillin-streptomycin) and, 48 hr later, the medium was changed to differentiation induction medium. The differentiation induction medium contained passage medium B as a base medium, and dexamethasone, isobutylmethylxanthine, insulin and pioglitazone at a final concentration of 0.5 μM, 500 μM, 8 μg/ml and 2 μM, respectively. Further, 48 hr later, the medium was changed to a differentiation promoting medium. The differentiation promoting medium contained passage medium B as a base medium, and insulin and pioglitazone at a final concentration of 8 μg/ml and 2 μM, respectively. 48 hr later, the medium was changed to passage medium B. Thereafter, the medium was changed to passage medium B every other day. 7 to 10 days later, differentiation of 3T3-L1 cells into mature adipocyte cells were confirmed with a phase contrast microscope, and the cells were subjected to the following test.
After removing passage medium B by an aspirator, the cells were washed with KRB-HEPES (128 mM NaCl, 10 mM NaH2PO4, 4.7 mM KCl, 1.25 mM CaCl2, 1.25 mM MgCl2, 50 mM HEPES, pH 7.4). The licorice hydrophobic extract (50 mg/ml) of Example 1 and α-lipoic acid (100 mM) as an antioxidant ingredient were each dissolved in DMSO. […] The glycerol concentration was measured using Glycerol Reagent A manufactured by Zen-Bio, and the glycerol amount per protein concentration of the cell was calculated and compared. […]
After removing passage medium B, the cells were washed with KRB-HEPES. […] The glycerol concentration was measured using Glycerol Reagent A manufactured by Zen-Bio, and the glycerol amount per protein concentration of the cell was calculated and compared. […]

C[N+](C)(C)CC(O)CC(=O)[O-] (stereo not drawn) [carnitine]
glycerol secretion amount (Table 3 (Example 11), carnitine 80 μM): 43.5 ± 1.9 μM/mg protein

O=c1c(-c2ccc(O)cc2)coc2cc(O)cc(O)c12 [genistein]
glycerol secretion amount (Table 2 (Example 10), genistein 10 μM): 111.1 ± 6.3 μM/mg protein

O=C(O)CCCCC1CCSS1 (stereo not drawn) [α-lipoic acid]
glycerol secretion amount (Table 1 (Example 9), α-lipoic acid 30 μM): 89.6 ± 4.8 μM/mg protein
